Laboratory results taken from patent publication US20090023744A1, “COMBINATION THERAPY FOR DEPRESSION” (The General Hospital Corporation, priority 2007, published 2009).
Entries after “also recorded” stand apart in the source; their conditions may differ.

How the values were obtained:
[1] = test system: major depressive disorder (MDD); test: Clinical case report: treatment of recurrent MDD with buspirone and bupropion; assay type: in vivo, human; details: same patient remaining on bupropion 150 SR q.d. alone
Description: A person with a history of recurrent episodes of MDD presented with a recurrence of their MDD in the context of their having been off antidepressant medications. […] At the time of the initiation of this treatment combination, the patient reported depressed mood, irritability, decreased sleep and appetite, and fatigue, as well as reduced interest.

[2] = molecular target: T1, 5-HT2C receptor (Homo sapiens, UniProt P28335); details: reference [2]; cited from earlier work
T1 sequence (P28335 33-458): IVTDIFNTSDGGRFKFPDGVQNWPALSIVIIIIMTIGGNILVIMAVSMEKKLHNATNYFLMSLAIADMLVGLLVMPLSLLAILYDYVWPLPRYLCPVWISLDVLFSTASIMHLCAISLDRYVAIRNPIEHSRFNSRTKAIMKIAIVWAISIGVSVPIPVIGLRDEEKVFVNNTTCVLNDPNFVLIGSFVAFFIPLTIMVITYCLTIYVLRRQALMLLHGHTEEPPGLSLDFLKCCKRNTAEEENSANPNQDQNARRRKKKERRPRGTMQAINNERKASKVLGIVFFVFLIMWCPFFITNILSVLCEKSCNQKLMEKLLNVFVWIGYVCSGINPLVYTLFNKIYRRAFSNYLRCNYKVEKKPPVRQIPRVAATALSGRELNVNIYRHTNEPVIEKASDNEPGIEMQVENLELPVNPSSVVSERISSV

[3] = molecular target: T1, 5-HT2C receptor; details: reference [2]; cited from earlier work; remark: listed apart in the source

CC(NC(C)(C)C)C(=O)c1cccc(Cl)c1 (racemic) [bupropion, (±)-1-(3-chlorophenyl)-2-[(1,1-dimethylethyl)amino]-1-propanone]
depressive symptoms after discontinuation of buspirone [1]: depressive symptoms quickly returned; also recorded: not sufficient to lead to antidepressant response
insomnia after discontinuation of buspirone [1]: improvement of their insomnia

O=C1CC2(CCCC2)CC(=O)N1CCCCN1CCN(c2ncccn2)CC1 [buspirone, 8-[4-[4-(2-pyrimidinyl)-1-piperazinyl)butyl)-8-azaspiro[4,5]decane-7,9-dione]
5-HT2C receptor antagonist activity [2]: weak
affinity for 5-HT2C receptors [3]: low affinity
